In one assay the test system is HCV replicon genotype 1a. Description: microbe, parasite or virus in culture. The note with it: genotype 1a replicon cells, incubated 96 hours, NS3/4A ELISA readout. In kind it is cell-based. A general note: In antiviral work, replicon cells carry a viral genome segment that copies itself.
A further assay has as its system HCV replicon genotype 1b. Description: microbe, parasite or virus in culture. In kind it is cell-based. The note with it: genotype 1b replicon cells, incubated 96 hours, NS3/4A ELISA readout.

Usually IC50 stands for the concentration that inhibits the measured activity by half. Regarding `CNC(=O)c1c(-c2ccc(F)cc2)oc2cc(N(C)S(C)(=O)=O)c(-c3ccc4c(n3)-c3cc5c(F)cccc5n3C(C(OC)OC)O4)cc12` (centres unmarked) [Compound 93], the IC50 with HCV replicon genotype 1a (Hepatitis C virus, 96 h) turned out to be 4.4 nM; in the assay on HCV replicon genotype 1b (Hepatitis C virus, 96 h), 6 nM.
With `CNC(=O)c1c(-c2ccc(F)cc2)oc2cc(N(C)S(C)(=O)=O)c(-c3ccc4c(n3)-c3cc5c(F)cccc5n3[C@H](COC(=O)[C@@H](N)C(C)C)O4)cc12` [Compound 102, (S)—((S)-11-fluoro-2-(2-(4-fluorophenyl)-3-(methylcarbamoyl)-6-(N-methylmethylsulfonamido)benzofuran-5-yl)-6H-pyrido[2′,3′:5,6][1,3]oxazino[3,4-a]indol-6-yl)methyl 2-amino-3-methylbutanoate], the IC50 in the assay on HCV replicon genotype 1a (Hepatitis C virus, 96 h) came out at 3.9 nM; in the assay on HCV replicon genotype 1b (Hepatitis C virus, 96 h), 4.3 nM.
The matching figures for `CNC(=O)c1c(-c2ccc(F)cc2)oc2cc(N(C)S(C)(=O)=O)c(-c3ccc4c(n3)-c3cc5cc(C#N)ccc5n3CO4)cc12` [Compound 13]: 2 nM and 2.2 nM.
Take `CNC(=O)c1c(-c2ccc(F)cc2)oc2cc(N(C)S(C)(=O)=O)c(-c3ncc4c(n3)-c3cc5ccccc5n3CO4)cc12` [Compound 4]: the IC50 worked out at 0.7 nM in the assay on HCV replicon genotype 1a (Hepatitis C virus, 96 h) and 1.3 nM in the assay on HCV replicon genotype 1b (Hepatitis C virus, 96 h).
Consider `CNC(=O)c1c(-c2ccc(F)cc2)oc2cc(N(C)S(C)(=O)=O)c(-c3ccc4c(n3)-c3c(C(O)C(=O)O)c5c(F)cccc5n3CO4)cc12` (centres unmarked) [Compound 207, 2-(11-fluoro-2-(2-(4-fluorophenyl) -3-(methylcarbamoyl)-6-(N-methylmethylsulfonamido)benzofuran-5-yl)-6H-pyrido[2′,3′:5,6][1,3]oxazino[3,4-a]indol-12-yl)-2-hydroxyacetic acid], for which the IC50 was determined as 3.3 nM with HCV replicon genotype 1a (Hepatitis C virus, 96 h) and 2.1 nM with HCV replicon genotype 1b (Hepatitis C virus, 96 h).
`CNC(=O)c1c(-c2ccc(F)cc2)oc2cc(N(C)S(C)(=O)=O)c(-c3ccc4c(n3)-c3cc5ccc(Cl)cc5n3CO4)cc12` [Compound 15]: the IC50 came to 9.1 nM with HCV replicon genotype 1a (Hepatitis C virus, 96 h) and 9.9 nM in the assay on HCV replicon genotype 1b (Hepatitis C virus, 96 h).
The matching figures for `CNC(=O)c1c(-c2ccc(F)cc2)oc2cc(N(C)S(C)(=O)=O)c(-c3cnc4c(c3)-c3nc5c(n3CO4)CCCC5)cc12` [Compound 141, 2-(4-fluorophenyl)-N-methyl-6-(N-methylmethylsulfonamido)-5-(8,9,10,11-tetrahydro-6H-benzo[4,5]imidazo[1,2-c]pyrido[3,2-e][1,3]oxazin-2-yl)benzofuran-3-carboxamide]: 2.4 nM and 2.4 nM.
For the compound `CNC(=O)c1c(-c2ccc(F)cc2)oc2cc(N(C)S(C)(=O)=O)c(-c3ccc4c(c3)-c3[nH]c5ccccc5c3C(C(C)(C)C)O4)cc12` (centres unmarked) [Compound 64], the IC50 with HCV replicon genotype 1a (Hepatitis C virus, 96 h) came out at 71 nM; in the assay on HCV replicon genotype 1b (Hepatitis C virus, 96 h) it was 44 nM.
In the same order, the values of `CNC(=O)c1c(-c2ccc(F)cc2)oc2cc(N(C)S(C)(=O)=O)c(-c3cnc4c(n3)-c3cc5c(F)cccc5n3CO4)cc12` [Compound 25] are 1 nM and 1.8 nM.
With `COC(=O)C(=O)N(C)C(=O)c1c(-c2ccc(F)cc2)oc2cc(N(C)S(C)(=O)=O)c(-c3ccc4c(n3)-c3cc5c(F)cccc5n3CO4)cc12` [Compound 209, methyl 2-(5-(11-fluoro-6H-pyrido[2′,3′:5,6][1,3]oxazino[3,4-a]indol-2-yl)-2-(4-fluorophenyl)-N-methyl-6-(N-methylmethylsulfonamido)benzofuran-3-carboxamido)-2-oxoacetate], the IC50 in the assay with HCV replicon genotype 1a (Hepatitis C virus, 96 h) stood at 0.6 nM; in the assay on HCV replicon genotype 1b (Hepatitis C virus, 96 h) it was 2.6 nM.
Take `CNC(=O)c1c(-c2ccc(F)cc2)oc2cc(N(C)S(C)(=O)=O)c(-c3ccc4c(n3)-c3cc5cccc(Cl)c5n3CO4)cc12` [Compound 21]: the IC50 in the assay on HCV replicon genotype 1a (Hepatitis C virus, 96 h) stood at 14 nM; with HCV replicon genotype 1b (Hepatitis C virus, 96 h), 13 nM.
The matching figures for `CNC(=O)c1c(-c2ccc(F)cc2)oc2cc(N(CC(F)F)S(C)(=O)=O)c(-c3ccc4c(n3)-c3cc5c(F)cccc5n3CO4)cc12` [Compound 184, 6-(N-(2,2-difluoroethyl)methylsulfonamido)-5-(11-fluoro-6H-pyrido[2′,3′:5,6][1,3]oxazino[3,4-a]indol-2-yl)-2-(4-fluorophenyl)-N-methylbenzofuran-3-carboxamide]: 8.4 nM and 6.5 nM.
As to `CNC(=O)c1c(-c2ccc(F)cc2)oc2cc(N(C)S(C)(=O)=O)c(-c3ccc4c(n3)-c3cc5c(F)cccc5n3C(CNC(C)=O)O4)cc12` (centres unmarked) [Compound 129], the figures for the 50% inhibitory concentration (IC50) in the assay with HCV replicon genotype 1a and in the assay on HCV replicon genotype 1b were 1.7 nM and 2.1 nM, respectively.
`CNC(=O)c1c(-c2ccc(F)cc2)oc2cc(N(C)S(C)(=O)=O)c(-c3ccc4c(n3)-c3nc5ccccc5n3CO4)cc12` [Compound 136]: the IC50 in the assay with HCV replicon genotype 1a (Hepatitis C virus, 96 h) was found to be 3.5 nM; in the assay on HCV replicon genotype 1b (Hepatitis C virus, 96 h), 2.9 nM.
Turning to `CCOC(=O)N(C)C(=O)c1c(-c2ccc(F)cc2)oc2cc(N(C)S(C)(=O)=O)c(-c3ccc4c(n3)-c3cc5c(F)cccc5n3CO4)cc12` [Compound 208, Ethyl (5-(11-fluoro-6H-pyrido[2′,3′:5,6][1,3]oxazino[3,4-a]indol-2-yl)-2-(4-fluorophenyl)-6-(N-methylmethylsulfonamido)benzofuran-3-carbonyl)(methyl)carbamate], the half-inhibitory concentration (IC50) in the assay with HCV replicon genotype 1a (Hepatitis C virus, 96 h) came to 42 nM; in the assay on HCV replicon genotype 1b (Hepatitis C virus, 96 h), 122 nM.
In the same order, the values of `CNC(=O)c1c(-c2ccc(F)cc2)oc2cc(N(C)S(C)(=O)=O)c(-c3cnc4c(c3)-c3nc5ccccn5c3CO4)cc12` [Compound 144, 2-(4-fluorophenyl)-N-methyl-6-[methyl(methylsulfonyl)amino]-5-(6H pyrido[1″,2″:1′,2′]imidazo[4′,5′:4,5]pyrano[2,3-b]pyridin-2-yl)-1-benzofuran-3-carboxamide] are 2.9 nM and 1.9 nM.
With `CNC(=O)c1c(-c2ccc(F)cc2)oc2cc(N(C)S(C)(=O)=O)c(-c3ccc4c(n3)-c3cc5cc(F)ccc5n3CO4)cc12` [Compound 3], the IC50 turned out to be 2 nM with HCV replicon genotype 1a (Hepatitis C virus, 96 h) and 3.7 nM in the assay on HCV replicon genotype 1b (Hepatitis C virus, 96 h).
`CNC(=O)c1c(-c2ccc(F)cc2)oc2cc(N(C)S(C)(=O)=O)c(-c3ccc4oc(=O)n5c6cccc(F)c6cc5c4n3)cc12` [Compound 54, 5-(11-fluoro-6-oxo-6H-pyrido[2′,3′:5,6][1,3]oxazino[3,4-a]indol-2-yl)-2-(4-fluorophenyl)-N-methyl-6-(N-methylmethylsulfonamido)benzofuran-3-carboxamide]: the IC50 was found to be 69 nM with HCV replicon genotype 1a (Hepatitis C virus, 96 h) and 39 nM with HCV replicon genotype 1b (Hepatitis C virus, 96 h).
Turning to `CNC(=O)c1c(-c2ccc(F)cc2)oc2cc(N(C)S(C)(=O)=O)c(-c3ccc4c(c3)-c3cc5ccccc5n3CC(NCCN3CCCC3)CO4)cc12` (centres unmarked) [Compound 84], the IC50 in the assay with HCV replicon genotype 1a (Hepatitis C virus, 96 h) was determined as 26 nM; in the assay on HCV replicon genotype 1b (Hepatitis C virus, 96 h), 16 nM.
On to `CNC(=O)c1c(-c2ccc(F)cc2)oc2cc(N3CCOC3=O)c(-c3ncc4c(n3)-c3cc5c(F)cccc5n3CO4)cc12` [Compound 173, 5-(11-fluoro-6H-pyrimido[4′,3′:5,6][1,3]oxazino[3,4-a]indol-2-yl)-2-(4-fluorophenyl)-N-methyl-6-(2-oxooxazolidin-3-yl)benzofuran-3-carboxamide], for which the IC50 with HCV replicon genotype 1a (Hepatitis C virus, 96 h) stood at 8.4 nM; in the assay on HCV replicon genotype 1b (Hepatitis C virus, 96 h), 2.1 nM.
The matching figures for `CNC(=O)c1c(-c2ccc(F)cc2)oc2cc(N(C)S(C)(=O)=O)c(-c3ccc4c(n3)-c3[nH]c5cccc(F)c5c3C(c3nccs3)O4)cc12` (centres unmarked) [Compound 67]: 9.2 nM and 10 nM.
On to `CNC(=O)c1c(-c2ccc(F)cc2)oc2cc(N3CCCC3=O)c(-c3ncc4c(n3)-c3cc5c(F)cccc5n3CO4)cc12` [Compound 170], for which the IC50 was determined as 54 nM in the assay on HCV replicon genotype 1a (Hepatitis C virus, 96 h) and 13 nM in the assay with HCV replicon genotype 1b (Hepatitis C virus, 96 h).

Source of the values: US9265773B2, “Tetracyclic heterocycle compounds and methods of use thereof for the treatment of viral diseases” (priority 2011, dated 2016).
